# Laboratory results from article PMC7580722, “Design of new disubstituted imidazo[1,2-b]pyridazine derivatives as selective Haspin inhibitors. Synthesis, binding mode and anticancer biological evaluation” (Journal of Enzyme Inhibition and Medicinal Chemistry, 2020).
# pEC50, pIC50: −log10 of the molar value.
# Key:
# HCT116 = experiment: Cell viability, monolayer (2D), MTS assay; type: cell-based; settings: Homo sapiens, HCT-116, 48 h
# HsCdk9/Cyclin T = experiment: CDK9 kinase assay; type: biochemical, human; settings: SI = IC50 kinase X/IC50 Haspin
# Procedure: (§1) Values are IC50 expressed in µM and calculated from dose–response curves (each point on the curves was performed in triplicate). Selectivity indexes (SI; in brackets) are calculated as follows: SI = IC50 kinase X/IC50 Haspin. ND: not determined. *IC50 values obtained using the ADP-Glo methodology (see Experimental section, Supplementary Material). […]
# (§2) The reaction was carried out as described in general procedure A using 4 (0.150 g, 0.58 mmol, 1 equiv.), 2-aminopyrimidine-5-boronic acid (0.122 g, 0.88 mmol, 1.5 equiv.) and Cs2CO3 (0.575 g, 1.75 mmol, 3 equiv.). The crude mixture was purified by flash chromatography on silica gel (EtOAc) to afford 28 (0.115 g, 73 %) as a yellow […]
# (§3) The reaction was carried out as described in general procedure A using 4 (0.100 g, 0.39 mmol, 1 equiv.), 1-naphthaleneboronic acid (0.083g, 0.47 mmol, 1.2 equiv.) and Cs2CO3 (0.381 g, 1.17 mmol, 3 equiv.). […]
# (§4) Recombinant protein kinases were expressed and purified from E. coli (HsHaspin kinase domain aa470-798, HsCdk5/p25, RnDYRK1A kinase domain aa1-499, HsPIM1, MmCLK1) or baculovirus/Sf9 cells (HsCdk2/Cyclin A, HsCdk9/Cyclin T). […] The wet filter-bound radioactivity was determined in the presence of 20 µl scintillation fluid (GE healthcare) with a TopCount® Scintillation and Luminescence Counter (PerkinElmer). IC50 values were calculated from dose-response curves […]
# HsCdk5/p25 = experiment: CDK5 kinase assay; type: biochemical, human; settings: SI = IC50 kinase X/IC50 Haspin
# Procedure: as §1, §2, §3, §4
# SH-SY5Y = experiment: Cell viability, monolayer (2D), MTS assay; type: cell-based; settings: Homo sapiens, 48 h
# HsPLK1 = target: T1, HsPLK1 (Homo sapiens, UniProt P53350); experiment: PLK1 kinase assay; type: biochemical; settings: Table 4
# T1 construct: purchased ProQinase
# Procedure: . We therefore tested our compounds on two obvious candidates, HsCDK1 and HsPLK1 (Polo-like_kinase 1) both required for mitotic entry[50] (Table 4).
# (§5) Values are IC50 expressed in µM and calculated from dose–response curves (each point from the curves was performed in duplicate). NR: not relevant. […]
# (§6) Recombinant protein kinases were expressed and purified from E. coli (HsHaspin kinase domain aa470-798, HsCdk5/p25, RnDYRK1A kinase domain aa1-499, HsPIM1, MmCLK1) or baculovirus/Sf9 cells (HsCdk2/Cyclin A, HsCdk9/Cyclin T). Native SscCK1δ /ε and SscGSK3α/β were purified from pig brain whereas HsPlk1, HsCdk1 and HsAurora B were purchased from ProQinase and SignalChem respectively. Kinase assays were performed in specific buffers and substrates for each kinase tested in the presence of 15 µM [γ-33P] ATP (3,000 Ci/mmol, 10 mCi/ml; PerkinElmer) in a final volume of 30 µl as previously reported 51. After 30 min incubation at 30°C, the reaction mix was spotted onto GE healthcare P81 phosphocellulose paper using a FilterMate Harvester (PerkinElmer), and the filter was extensively washed with a 1% phosphoric acid solution. The wet filter-bound radioactivity was determined in the presence of 20 µl scintillation fluid (GE healthcare) with a TopCount® Scintillation and Luminescence Counter (PerkinElmer). IC50 values were calculated from dose-response curves
# HsCDK1 = target: T2, HsCDK1 (Homo sapiens, UniProt P06493); experiment: CDK1 kinase assay; type: biochemical
# T2 construct: purchased ProQinase
# Procedure: We therefore tested our compounds on two obvious candidates, HsCDK1 and HsPLK1 (Polo-like_kinase 1) both required for mitotic entry[50]
# as §5, §6
# U-2 OS cells = experiment: Cell cycle analysis by flow cytometry (propidium iodide); settings: 2.5 µM, 24 h, U-2 OS
# Procedure: Figure 6. […] DNA content was measured by flow cytometry and representative profiles are shown. (B) quantification of the proportion of cells in each phase of the cell cycle from the experiment described in (A). Results are mean percentage (n = 3 independent experiments).
# Cellular evaluation methods
# All media were supplemented with 10% fetal calf serum (unless overwise specified) and 2 mM L-glutamine and cells were cultured
# F68-pluronic acid. Cells were fixed for 2h in ice-cold ethanol, then washed twice in PBS containing 0.1% F68-pluronic acid, centrifuged at 200 g and resuspended in a PBS buffer containing 1% Triton, 100 µg/ml RNase A (Thermo Scientific) and 40 µg/ml propidium iodide (Life Technologies). DNA content was determined using a FACS Canto II (BD) and the data were analyzed using FCS Express Cytometry software (De Novo Software).
# Twenty thousand events were collected in each run.
# [1] = system: Haspin activity (H3T3ph) in U-2 OS cells; experiment: In-cell Haspin activity, H3T3ph immunofluorescence; type: cell-based, human; settings: 24 h
# RPE-1 = experiment: Cell viability, monolayer (2D), MTS assay; type: cell-based; settings: Homo sapiens, 48 h
# U-2 OS spheroids = experiment: Spheroid (3D) viability, CellTiter-Glo; type: cell-based, human; settings: 5 µM, Figure 4(B)
# T2 sequence (P06493 whole entry): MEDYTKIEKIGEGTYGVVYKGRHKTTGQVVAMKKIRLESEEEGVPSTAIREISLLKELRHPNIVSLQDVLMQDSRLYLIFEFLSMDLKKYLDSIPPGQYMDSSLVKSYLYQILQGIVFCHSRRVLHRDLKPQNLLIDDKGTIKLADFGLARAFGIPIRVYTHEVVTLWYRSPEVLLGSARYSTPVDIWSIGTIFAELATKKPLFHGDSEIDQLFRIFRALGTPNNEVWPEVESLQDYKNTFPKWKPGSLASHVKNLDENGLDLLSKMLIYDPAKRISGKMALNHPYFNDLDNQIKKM
# T2 sequence (P14635 whole entry partner): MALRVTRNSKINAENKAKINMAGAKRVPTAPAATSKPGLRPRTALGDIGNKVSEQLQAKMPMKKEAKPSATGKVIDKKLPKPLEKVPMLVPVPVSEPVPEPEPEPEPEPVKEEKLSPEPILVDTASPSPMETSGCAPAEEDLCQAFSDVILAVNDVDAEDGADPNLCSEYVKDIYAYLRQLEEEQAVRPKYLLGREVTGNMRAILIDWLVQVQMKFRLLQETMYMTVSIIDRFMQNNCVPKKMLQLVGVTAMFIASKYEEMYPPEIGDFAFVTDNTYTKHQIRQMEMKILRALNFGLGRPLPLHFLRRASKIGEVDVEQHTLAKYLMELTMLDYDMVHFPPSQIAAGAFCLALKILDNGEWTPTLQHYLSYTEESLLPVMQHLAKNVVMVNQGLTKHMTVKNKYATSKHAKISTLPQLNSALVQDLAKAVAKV
# T1 sequence (P53350 whole entry): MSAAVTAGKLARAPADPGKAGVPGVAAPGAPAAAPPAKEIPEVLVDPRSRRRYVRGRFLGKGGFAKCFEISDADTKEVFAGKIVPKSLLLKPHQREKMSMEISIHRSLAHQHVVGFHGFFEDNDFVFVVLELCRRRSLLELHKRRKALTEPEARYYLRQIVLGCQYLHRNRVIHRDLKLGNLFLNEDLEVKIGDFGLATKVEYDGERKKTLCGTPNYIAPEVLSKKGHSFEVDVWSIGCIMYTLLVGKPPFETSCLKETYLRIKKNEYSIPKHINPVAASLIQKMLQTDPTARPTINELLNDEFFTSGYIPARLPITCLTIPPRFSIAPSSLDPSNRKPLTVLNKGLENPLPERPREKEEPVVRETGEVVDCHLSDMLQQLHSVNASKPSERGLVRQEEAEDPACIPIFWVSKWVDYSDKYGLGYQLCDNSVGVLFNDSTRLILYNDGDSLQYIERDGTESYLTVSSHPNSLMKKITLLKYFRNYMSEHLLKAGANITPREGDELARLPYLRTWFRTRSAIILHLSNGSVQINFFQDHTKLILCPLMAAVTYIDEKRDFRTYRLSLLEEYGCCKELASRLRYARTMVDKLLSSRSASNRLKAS
smiles,measurement,setting,value
c1cc2[nH]ncc2cc1-c1cnc2ccc(OC[C@@H]3CNCCO3)nn12 [Compound 21],pEC50,HCT116,< 5.00
same,selectivity for CDK9 vs Haspin,HsCdk9/Cyclin T,28 fold
same,selectivity for CDK5 vs Haspin,HsCdk5/p25,150 fold
same,pEC50,SH-SY5Y,< 5.00
same,pIC50,HsPLK1,< 5.00
same,SI CDK1/Haspin,HsCDK1; SI = IC50 CDK1/IC50 Haspin,392
same,pIC50,"HsCDK1; Table 4, read-out: IC50 HsCDK1",5.63
same,cells in G2/M phase (% of cell total population),U-2 OS cells; DMSO control 12.8%,21.4%
same,cells in S phase (% of cell total population),U-2 OS cells; DMSO control 51.9%,32%
same,H3T3ph signal remaining in prometaphase cells (% of ctrl),[1]; 0.5 µM,2.4%
same,inhibition at 0.05 µM,"[1]; Homo sapiens, U2OS, 0.05 µM, read-out: inhibition of cellular Haspin activity",> 80%
same,pEC50,RPE-1,5.34
same,U-2 OS spheroid remaining viability,U-2 OS spheroids; 2 days,no effects
same,viability at 5 µM,"U-2 OS spheroids; Homo sapiens, U2OS, 240 h, 10 days, read-out: U-2 OS spheroid viability",69%
